According to US8034791B2, “Activation of Egr-1 promoter by DNA damaging chemotherapeutics” (The University of Chicago, priority 2001, dated 2011):
Where a name gives a salt, the structure may show the parent alone.

Columns and labels:
PC-3 cells [1] = experiment: Preliminary in vitro TNF-α induction, PC-3 cells; format: cell-based, human; conditions: vector treated PC-3 cells (100 MOI), 24 hrs; cisplatin 250 μM, doxorubicin 3 μM, 5-FU 20 mM, paclitaxel 14 μM
Protocol: (§1) In vitro measurement of TNF-α protein. PC-3 and PROb cells were plated in 96-well plates, grown overnight, and infected with Ad.Egr.TNF at 100 multiplicities of infection, incubated for three hrs, and were then treated with cisplatin (250 μM), doxorubicin (3 μM), 5-FU (20 mM) or paclitaxel (14 μM). Supernatants were harvested 24 hrs later and human TNF-α production was quantified by ELISA. Experiments were performed in quintuplicate.

PROb cells [2] = experiment: Preliminary in vitro TNF-α induction, PROb cells; format: cell-based, rat; conditions: PROb cells treated with Ad.TNF (100 MOI), 24 hrs; cisplatin 250 μM, doxorubicin 3 μM, 5-FU 20 mM, paclitaxel 14 μM
Protocol: as §1

PC-3 xenografts [3] = format: in vivo, nude mice; conditions: IT vector 5×10^9 p.u. + IP agent vs vector and NS, cisplatin 9, cyclophosphamide 160, doxorubicin 15, 5-FU 100 mg/kg
Protocol: (§2) In vivo measurement of TNF-α protein. PC-3 (1×10^7 cells) or PROb cells (5×10^6) in 100 μl PBS were injected subcutaneously into the right hind limb of nude mice. Tumor-bearing mice received IT Ad.Egr.TNF (5×10^9 p.u. in 10 μl) with 250 μl of complete media with NS or a chemotherapeutic agent, including cisplatin (9 mg/kg), cyclophosphamide (160 mg/kg), doxorubicin (15 mg/kg), 5-fluorouracil (100 mg/kg) and gemcitabine (500 mg/kg). Each mouse IP injections were administered 20 hrs after transfection, and two consecutive IT and IP injections were given. Animals were euthanized, and xenografts were harvested 48 hrs after the second IP injection. Xenografts were snap-frozen in liquid nitrogen and homogenized in RIPA buffer (150 mM NaCl, 10 mM Tris at pH 7.5, 5 mM EDTA at pH 7.5, 100 mM PMSF, 1 μg/ml leupeptin and 2 μg/ml aprotinin). After three freeze-thaw lysis cycles, the homogenate was centrifuged for 10 minutes at 4° C. TNF-α levels in the supernatants were measured as described above.

PROb xenografts [4] = format: in vivo, nude mice; conditions: IT vector 5×10^9 p.u. + IP agent vs vector plus NS, cisplatin 9, cyclophosphamide 160, doxorubicin 15, 5-FU 100, gemcitabine 500 mg/kg
Protocol: as §2

PC-3 cells [5] = experiment: Chemo-sensitivity by MTS assay, PC-3 cells; format: cell-based, human; conditions: PC-3, Ad.Egr-TNF.11D and chemotherapy 24 hrs
Protocol: (§3) Chemo-sensitivity of PC-3 and PROb cells as determined by MTS assay. PC-3 and PROb cells were plated at a density of 10^5 cells/100 μl medium in 96-well tissue culture plates and incubated overnight. […] After incubation, 200 μl of complete media, with or without chemotherapeutic agents, was added. Chemotherapeutic agents used were at final concentrations of cisplatin at 46 and 460 μM, doxorubicin at 3 and 300 μM, 5-fluorouracil at 2 and 200 mM and paclitaxel at 1.4 and 140 μM. Media was removed 24 hrs later and each well was rinsed with 200 μl of complete media (CM) and aspirated. 100 μl of CM was then added with 20 μl of CellTiter 96® Aqueous One Solution Cell Proliferation Assay solution (Promega, Madison, Wis.), and the cells were allowed to incubate for 1 hr. Absorbance was measured at 490-650 nm.

PROb cells [6] = experiment: Chemo-sensitivity by MTS assay, PROb cells; format: cell-based, rat; conditions: Ad.Egr-TNF.11D and chemotherapy 24 hrs
Protocol: as §3

PC-3 cells [7] = experiment: Chemo-inducibility of Ad.Egr-TNF.11D in vitro, PC-3 cells; conditions: PC-3 cells, doses used in the chemo-induction experiments (3 μM)
Protocol: (§4) PC-3 and PROb cells were plated, infected with Ad.Egr.TNF, and incubated as discussed above. After incubation, 200 μl of CM, with or without chemotherapeutic agents, including cisplatin (250 μM), doxorubicin (3 μM), 5-fluorouracil (100 mM), gemcitabine (3 mM) and paclitaxel (14 μM) were added. Conditioned medium was harvested 24 hrs. later, and TNF-α concentration was measured (Quantikine Human TNF-α ELISA kit, R & D Systems, Minneapolis, Minn.).

PROb cells [8] = experiment: Chemo-inducibility of Ad.Egr-TNF.11D in vitro, PROb cells; format: cell-based, rat; conditions: vector-infected PROb cells, 24 hrs; cisplatin 250 μM, doxorubicin 3 μM, 5-FU 100 mM, gemcitabine 3 mM, paclitaxel 14 μM
Protocol: as §4

PC-3 xenografts [9] = format: in vivo, athymic nude mice; conditions: vector + IP agent days 1 and 2, cisplatin 9, cyclophosphamide 160, doxorubicin 15, 5-FU 100, gemcitabine 500 mg/kg
Protocol: (§5) Saline or chemotherapeutic agents administered IP on days 1 and 2, including 9 mg/kg cisplatin, 160 mg/kg cyclophosphamide, 15 mg/kg doxorubicin, 100 mg/kg 5-FU and 500 mg/kg gemcitabine. Animals were euthanized, and xenografts were harvested 24 hrs after the second IP injection. Xenografts were snap-frozen in liquid nitrogen and homogenized in RIPA buffer (150 mM NaCl, 10 mM Tris pH 7.5, 5 mM EDTA pH 7.5, 100 mM PMSF, 1 µg/ml leupeptin and 2 μg/ml aprotinin) using a Brinkman Polytron homogenizer (Kinematica AG, Lucerne, Switzerland). After three freeze-thaw lysis cycles, the homogenate was centrifuged at 7800×g in a Sorvall RC-5C SS34 rotor (Kendro Laboratory Products, Newtown, Conn.) for 10 min at 4° C. TNF-α levels in the supernatants were measured by ELISA as described above.

PROb xenografts [10] = conditions: PROb xenografts, vector + IP agent vs vector alone; cisplatin 9, cyclophosphamide 160, doxorubicin 15, 5-FU 100, gemcitabine 500 mg/kg
Protocol: as §5

PC-3 xenografts [11] = experiment: Xenograft regrowth study, PC-3; format: in vivo, athymic nude mice
Protocol: Xenograft regrowth studies. Treatment was initiated on day 0 at which time mice were assigned to one of 4 treatment groups: control, doxorubicin, Ad.Egr-TNF.11D, and combination of Ad.Egr-TNF.11D and doxorubicin. On days 0 and 3, mice received IT injection of 10 μl of either 5×10^9 p.u. Ad.Egr-TNF.11D, or 10 μl of viral formulation buffer. IP injections of doxorubicin or NS (2 mg/kg) were administered daily from days 0 through 8. Xenografts were measured twice weekly and tumor volume was calculated according to the formula (length×width×thickness)/2. Fractional tumor volumes (V/V0 where V0=volume on day 0) were calculated and plotted.

PROb xenografts [12] = experiment: Xenograft regrowth study, PROb; format: in vivo, athymic nude mice; conditions: day 27, among control, doxorubicin alone and vector alone
Protocol: Xenograft regrowth studies. […] On days 0 and 3, mice received IT injection of 10 μl of either 5×10^9 p.u. […] IP injections of doxorubicin or NS (2 mg/kg) were administered daily from days 0 through 8. Xenografts were measured twice weekly and tumor volume was calculated according to the formula (length×width×thickness)/2. Fractional tumor volumes (V/V0 where V0=volume on day 0) were calculated and plotted.

PC-3 xenografts [13] = experiment: Analysis of microvessel density (anti-CD31), PC-3 xenografts; format: in vivo, athymic nude mice; conditions: day 27, anti-CD31
Protocol: Two or three xenografts from each treatment group in the PC-3 regrowth study above were collected and fixed in 10% neutral buffered formalin, embedded in paraffin, cut in 5 μm slices, mounted, baked, cleared in xylene, and rehydrated in decreasing alcohol concentrations (100%-70%) and distilled water. Sections were microwaved in 10 mM citrate buffer at pH 6.0 for 18 min, washed and soaked in 1% hydrogen peroxide/methanol for 20 min prior to blocking with avidin-biotin (Vector Laboratories, Burlingame, Calif.) for 15 min. Slides were incubated with biotin (15 min), washed and blocked with serum-free DAKO protein (DAKO, Carpinteria, Calif.) for 10 min prior to incubation with a 1:50 dilution of goat anti-mouse CD31 antibody (Santa Cruz, Santa Cruz, Calif.) for 60 min at RT. CD-31 staining was visualized on tissue sections following incubation with DAKO biotinylated anti-goat secondary antibody for 30 min and DAB reagent (Vector) for 60 sec. Sections were counterstained with Gill 3 hematoxylin and dehydrated in ethanol (95%-100%) and xylene prior to mounting. All slides were read by an investigator blinded to the treatment groups. Positively stained vessels were counted in 5-10 high power fields (×400) per slide using light microscopy. Blood vessels were identified by endothelial cell staining and by endothelial cells surrounding intraluminal erythrocytes. […]

[14] = higher concentration: cisplatin 460 μM, doxorubicin 300 μM, 5-FU 200 mM, taxol 140 μM
[15] = lower concentration: cisplatin 46 μM, doxorubicin 3 μM, 5-FU 2 mM, taxol 1.4 μM

COc1cccc2c1C(=O)c1c(O)c3c(c(O)c1C2=O)C[C@@](O)(C(=O)CO)C[C@@H]3O[C@H]1C[C@H](N)[C@H](O)[C@H](C)O1 [doxorubicin, doxorubicin hydrochloride]
increased TNF levels (PC-3 cells [1]): 14.5 fold | increased TNF levels (PROb cells [2]): 7.3 fold | induced TNF-α (PC-3 xenografts [3]): 3.1 fold | increased TNF-α levels (PROb xenografts [4]): 2.5 fold | surviving fraction (PC-3 cells [5]; [14]): 30% | surviving fraction (PC-3 cells [5]; [15]): 90% | surviving fraction (PROb cells [6]; [14]): 85% | surviving fraction (PROb cells [6]; [15]): 100% | toxicity to cells (PC-3 cells [7]): toxic at the doses used | increase in TNF-α levels (PROb cells [8]): 7.4 fold | increase in TNF-α levels (PC-3 xenografts [9]): 4.2 fold | induction of TNF-α protein (PROb xenografts [10]): 2.3 fold | tumor growth (PC-3 xenografts [11]; PC-3 xenografts, day 23, doxorubicin 2 mg/kg IP daily): 3 fold | systemic toxicity, including weight loss and deaths (PC-3 xenografts [11]; xenograft regrowth studies in nude mice): Systemic toxicity, including weight loss and deaths, was observed | tumor growth delay (PROb xenografts [12]): no difference in tumor growth delay | number of vessels per high power field (PC-3 xenografts [13]): 6.24±0.35
